# According to patent publication US20140155471A1, “TREATING NEUROLOGICAL DISEASE OR INJURY WITH A DYNAMIN-RELATED PROTEIN 1 (DRP1) ENCODING NUCLEIC ACID” (UNIVERSITY OF ROCHESTER, priority 2011, published 2014):
# How the values were obtained:
# Pink1-/- mice = assay: Depolarization (KCl)-evoked striatal DA overflow by in vivo microdialysis in Pink1-/- and Pink1+/+ mice; conditions: mdivi-1 i.p. twice daily for 3 days
# Method: Stereotactic implantation of guide cannula was performed under ketamine/xylazine (65/6 mg/kg i.p.) anesthesia using the following striatal coordinates, relative to bregma: anterior-posterior +0.5 mm, lateral −2.0 mm, dorsal-ventral −1.5 mm (from surface of brain). Twenty-four hours after recovery from surgery, a microdialysis probe (2-mm membrane, Bioanalytical Systems, Inc., West Lafayette, Ind.) was inserted into the guide cannula and connected to a low torque-dual channel swivel (Instech Laboratories, Inc., Plymouth Meeting, Pa.) which was connected to a syringe pump perfusing with artificial cerebrospinal fluid (aCSF) at 2 μL/min for all studies except mdivi-1 pharmacokinetic studies where the flow rate was 1 μL/min. […] Samples from the same animals were measured for the contents of mdivi-1, MPP+, DA, and its metabolites.
# [1] = molecular target: T1, mouse dopamine transporter (Mus musculus, UniProt Q61327); assay: Transport studies in cells overexpressing dopamine transporter (MPP+ or DA uptake); type: cell-based; conditions: stable cells overexpressing DAT; substrates MPP+ or DA; mdivi-1 1 or 10 μM
# T1 construct: expressed in transfected cells; host or cells: EM4 cells / HEK 293 cells stably transfected with macrophage scavenger receptor
# Method: EM4 cells and human embryonic kidney (HEK 293) cells stably transfected with macrophage scavenger to increase their adherence to tissue culture plastic, overexpressing mouse dopamine transporter or empty vector control were grown in 24-well plates. These cells were washed twice and then preincubated for 20 min at 37° C. in Krebs Ringer Hepes (KRH) buffer (125 mM NaCl, 25 mM HEPES, 5.6 mM glucose, 4.8 mM KCl, 1.2 mM KH2PO4, 1.2 mM CaCl2, 1.2 mM MgSO4, pH 7.4), in the presence or absence of mdivi-1 (1, or 10 μM) or GBR12909 (1 μM). This buffer was then replaced with KRH plus or minus MPP+ (200 μM) or dopamine (100 μM), in the presence or absence of mdivi-1 (1, or 10 μM) or GBR12909 (1 μM) for 30 min. To stop the reaction, cells were rinsed with ice-cold buffer and then immediately removed in 5% trichloroacetic acid, sonicated and centrifuged at 15,000 at 4° C. […]. Supernatant was collected for MPP+ and DA quantification using HPLC. Cell pellet was measured for protein concentration using the BCA assay.
# MPTP mouse model of PD [2] = assay: MPTP mouse model, neuroprotection (active neurodegeneration); type: in vivo, C57BL/6 mice; conditions: mdivi-1 delivered together with MPTP
# Method: For all studies, 10-12 week old male C57BL/6 mice were randomly assigned to receive intraperitoneal injections of either MPTP (25 mg/kg, Sigma, St. Louis, Mo.) or saline once daily for 5 days. For the neuroprotection studies, mice received twice daily i.p. injections (20 mg/kg) with mdivi-1 beginning on the day of the first MPTP injection and continued until mice were sacrificed 7 days after last MPTP injection. For the neurorescue studies, mice received twice daily i.p. injections (20 mg/kg) with mdivi-1 beginning 7 days after the last MPTP injection and continued for a total of 3 days. […]
# (§1) Brains from saline and MPTP treated mice were sectioned (30 μm) and processed for stereological cell counts using the optical fractionator method as described 35. Striatal optical densities of TH immunoreactivity were also quantified.
# (§2) A 12-channel CoulArray® (ESA Inc., Chelmsford, Mass.) equipped with a highly sensitive amperometric microbore cell (model 5041, ESA Inc.) was used to analyze the content of DA and its metabolites with the cell potential set at +220 mV as described in Cui et al. For measurements of total striatal DA content, mice were sacrificed and their striata were dissected out and stored at −80° C. until analysis. […] Peaks were detected by an ESA 8 Channel CoulArray® system. […]
# [3] = In vivo microdialysis and HPLC of mdivi-1 in striatal dialysate (blood-brain barrier crossing); parameters: species or system mice
# Method: Stereotactic implantation of guide cannula was performed under ketamine/xylazine (65/6 mg/kg i.p.) anesthesia using the following striatal coordinates, relative to bregma: anterior-posterior +0.5 mm, lateral −2.0 mm, dorsal-ventral −1.5 mm (from surface of brain). […] Samples from the same animals were measured for the contents of mdivi-1, MPP+, DA, and its metabolites. Levels of these molecules and the amount of KCl (delivered to the striatum) were calculated on the basis of the standard curves, probe efficiency (˜8%), flow rate, and duration of sample collection as described in Cui et al. “The organic cation transporter-3 is a pivotal modulator of neurodegeneration in the nigrostriatal dopaminergic pathway,” PNAS USA 106: 8043-8048 (2009).
# as §2
# The ability of Mitochondrial Division Inhibitor-1 (mdivi-1), a Drp1 inhibitor, to cross the blood-brain barrier was assessed. […]
# MPTP mouse model of PD [4] = assay: MPTP mouse model, neurorescue (treatment 7 days after last MPTP injection); type: in vivo, C57BL/6 mice; conditions: mdivi-1 i.p. twice daily for 3 days starting 7 days after last MPTP injection
# Method: For all studies, 10-12 week old male C57BL/6 mice were randomly assigned to receive intraperitoneal injections of either MPTP (25 mg/kg, Sigma, St. Louis, Mo.) or saline once daily for 5 days. For the neuroprotection studies, mice received twice daily i.p. injections (20 mg/kg) with mdivi-1 beginning on the day of the first MPTP injection and continued until mice were sacrificed 7 days after last MPTP injection. For the neurorescue studies, mice received twice daily i.p. injections (20 mg/kg) with mdivi-1 beginning 7 days after the last MPTP injection and continued for a total of 3 days. To maximize the data yielded from each animal, mice were sacrificed by decapitation and the freshly removed brains were divided into 3 pieces for separate measures of nigrostriatal damage. […]
# as §1
# Stereotactic implantation of guide cannula was performed under ketamine/xylazine (65/6 mg/kg i.p.) anesthesia using the following striatal coordinates, relative to bregma: anterior-posterior +0.5 mm, lateral −2.0 mm, dorsal-ventral −1.5 mm (from surface of brain). […] Samples from the same animals were measured for the contents of mdivi-1, MPP+, DA, and its metabolites. […]
# T1 sequence (Q61327 whole entry): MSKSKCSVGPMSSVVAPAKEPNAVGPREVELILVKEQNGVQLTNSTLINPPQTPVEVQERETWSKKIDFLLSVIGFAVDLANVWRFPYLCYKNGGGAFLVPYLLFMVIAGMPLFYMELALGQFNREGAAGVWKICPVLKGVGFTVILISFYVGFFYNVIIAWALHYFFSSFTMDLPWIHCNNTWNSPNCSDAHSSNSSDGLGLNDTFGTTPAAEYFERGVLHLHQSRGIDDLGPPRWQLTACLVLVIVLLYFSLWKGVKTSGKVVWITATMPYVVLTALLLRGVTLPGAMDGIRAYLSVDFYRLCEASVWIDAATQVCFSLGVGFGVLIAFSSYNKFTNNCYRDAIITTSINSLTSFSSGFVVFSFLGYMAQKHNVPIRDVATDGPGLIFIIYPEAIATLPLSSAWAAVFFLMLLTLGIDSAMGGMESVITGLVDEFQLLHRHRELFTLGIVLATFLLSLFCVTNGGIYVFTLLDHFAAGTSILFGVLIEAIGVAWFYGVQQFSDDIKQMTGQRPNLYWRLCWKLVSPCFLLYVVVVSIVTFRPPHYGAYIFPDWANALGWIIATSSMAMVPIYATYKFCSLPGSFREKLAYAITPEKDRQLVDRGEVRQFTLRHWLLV
structure (smiles),measurement,setting,value
"COc1cc(-n2c(S)nc3ccccc3c2=O)c(Cl)cc1Cl [mdivi-1, 3-(2,4-dichloro-5-methoxyphenyl)-2-sulfanyl-4(3H)-quinazolinone]",evoked DA overflow in Pink1-/- mice,"Pink1-/- mice; 12 month old Pink1-/- mice, high-KCl aCSF",complete restoration
same,level of evoked DA release in Pink1+/+ mice,Pink1-/- mice; Pink1+/+ mice,did not alter
same,transport activity of DAT,[1],did not affect
same,MPTP induced-loss of dopaminergic cell body terminals and DA content,MPTP mouse model of PD [2],significantly prevented
same,time of peak of mdivi-1 in striatal dialysate,[3]; after an i.p. injection,3 h
same,mdivi-1 in the striatal dialysate (ability to cross the blood-brain barrier),"[3]; after i.p. injection, in vivo microdialysis, HPLC",detected
same,evoked DA overflow in MPTP-lesioned mice,MPTP mouse model of PD [4],improved
same,regeneration of nigral DA neurons terminals or total DA content,MPTP mouse model of PD [4],absence of promoting regeneration
